Tests used:
PKR K410E = PKR K410E (Homo sapiens, UniProt P30613, K410E); test: PKR mutant assay (AC50), PKR K410E; assay type: biochemical; settings: PKR K410E mutant enzyme
Method: (§1) Example 11. PKR Mutant Assay
(§2) PKR or PKR mutant enzyme solution was diluted into a reaction mix, which contains 1× buffer (100 mM KCl, 50 mM Tris pH 7.5, 5 mM MgCl2) as well as PEP (cont depends on enzyme), 180 μM NADH, 0.5 units LDH, 1 mM DTT, 0.03% BSA; final assay concentrations after 1.11 fold dilution are indicated.
(§3) 2 μL of test compound was added into wells first, and then 180 μL reaction mix was added.
(§4) Reactions mixture with test compound was assembled except for ADP, and plates were stored for 60 minutes at room temperature.
(§5) 20 uL ADP was added to start reaction at room temperature and reaction progress was measured as changes in absorbance at 340 nm wavelength at room temperature.
(§6) Test Compound Preparation:
(§7) Test compound stock was made at 100× concentration in 100% DMSO (10 mM)
(§8) 1 to 3 dilutions were made for 11 points (i.e. 50 μl of first concentration added to 100 μl 100% DMSO to yield 3.33 mM, 50 μl of this added to 100 μl DMSO to yield 1.11 mM, and so forth) • 1 to 100 dilution into assay (2 μl in 200 μl) yielded starting concentration of 100 μM, decreasing 3 fold for 11 points.
(§9) Assay Buffer: 100 mM KCl, 50 mM Tris 7.5, 5 mM MgCl2, 1 ruM DTT, 0.03% BSA
(§10) Reaction Mixture: PKR mutant enzyme: 40-400 ng/well; ADP: 0.2-1.65 mM; PEP: 0.1-0.5 mM; NADH:180 μM; LDH: 0.5 units (Sigma #59023); DTT: 1 mM; BSA: 0.03%.

PKR R510Q = PKR R510Q (Homo sapiens, UniProt P30613, R510Q); test: PKR mutant assay (AC50), PKR R510Q; assay type: biochemical; settings: PKR R510Q mutant enzyme; read-out: PK R510Q AC50
PKR R510Q, sequence (P30613 whole entry R510Q): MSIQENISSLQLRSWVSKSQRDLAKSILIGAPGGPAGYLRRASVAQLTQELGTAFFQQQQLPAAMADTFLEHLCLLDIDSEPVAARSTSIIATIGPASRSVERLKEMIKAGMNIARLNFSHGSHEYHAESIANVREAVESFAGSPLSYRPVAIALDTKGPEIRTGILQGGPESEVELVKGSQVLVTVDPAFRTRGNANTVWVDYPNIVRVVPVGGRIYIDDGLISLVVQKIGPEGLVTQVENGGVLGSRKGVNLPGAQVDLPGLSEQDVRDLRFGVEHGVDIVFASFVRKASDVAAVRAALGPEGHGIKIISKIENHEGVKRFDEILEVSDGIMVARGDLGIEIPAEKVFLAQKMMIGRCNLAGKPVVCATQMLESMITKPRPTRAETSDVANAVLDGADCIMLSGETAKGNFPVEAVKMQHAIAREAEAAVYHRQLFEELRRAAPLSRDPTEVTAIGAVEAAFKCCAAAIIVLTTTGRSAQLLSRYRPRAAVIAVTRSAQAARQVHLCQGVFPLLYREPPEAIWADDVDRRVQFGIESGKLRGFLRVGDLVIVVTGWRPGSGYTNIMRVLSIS
Method: as §1, §2, §3, §4, §5, §6, §7, §8, §9, §10

wild type PKR [1] = target: T1, wild type PKR (Homo sapiens, UniProt P30613); test: PKR mutant assay (AC50), wild type PKR; assay type: biochemical; settings: wild type PKR enzyme; read-out: PKR WT AC50
T1 sequence (P30613 whole entry): as the sequence (P30613 whole entry R510Q) above, with Q510R counted along it
Method: as §1, §2, §3, §4, §5, §6, §7, §8, §9, §10

wild type PKR [2] = target: T1, wild type PKR; test: Cell based ATP assay in purified red blood cells; design: endogenous in cells; host or cells: purified red blood cells from blood of healthy volunteers; settings: RBCs, overnight at 37° C., ATP levels by Cell-Titer-Glo
Method: Example 16. Red Blood Cell (RBC) Purification
Fresh blood drawn from healthy volunteers into K2EDTA tubes was collected. Whole blood was pelleted by spinning at 500 g for 10 minutes. Cut transfusion bag port off of Purecell leukocyte reduction neofilter (Fisher NCO267633) one (1) inch above filter. Attach a 10 ml syringe barrel to the remaining cut tubing attached to neofilter. The plasma layer was removed from the pellet of the whole blood and the pellet was resuspended in 2× volume of phosphate buffered saline (PBS). Transfer 9 ml re-suspended blood cell pellet to prepared 10 ml syringe that is attached to the neofilter. Allow whole blood to gravity flow through filter until all fluid runs through upper tubing into filter disc. Add plunger to the syringe, remove syringe from clamp and invert the filter, then plunge air through the syringe filter system. Using a new 5 ml syringe, remove filtered RBCs from the bag by the syringe port and transfer purified RBCs to a 5 ml snap cap tube that has been incubated on ice. Spin 5 ml snap cap tube at 500 g for 10 minutes at 15 C, aspirate supernatant and resuspend in AGAM (1×PBS, 1% glucose, 170 mg/L adenine, 5.25 g/L mannitol) at a density of 4×10^9 cells/mL.
Example 17. Cell Based ATP Assay
For cell based ATP assays, the compound as described herein was prepared in 100% DMSO as a 10 mM stock. Serial dilutions (1:4) were performed in 96-well V-bottom storage plate and then added 1:100 to 96-well V-bottom plates containing AGAM. RBCs were diluted in AGAM media to a density of 1×10^7 cells/mL before added 90 μL/well to black clear bottom assay plates (final compound concentration at 0.1% DMSO concentration). Assay plates were sealed using aluminum foil seals and incubated overnight at 37° C. in a humidified chamber. ATP levels were read out using Cell-Titer-Glo (Promega).

PKR K410E, sequence (P30613 whole entry K410E): as the sequence (P30613 whole entry R510Q) above, with K410E, Q510R counted along it

AC50 (PKR K410E)	AC50 (PKR R510Q)	AC50 (wild type PKR [1])	AC50 (wild type PKR [2])	Compound
< 300 nM	< 300 nM	< 300 nM	≤ 1000 nM	Cn1ccc(Cn2ncc3c4sc(Cc5cc[nH]n5)nc4n(C)c3c2=O)n1
< 300 nM	< 300 nM	< 300 nM	≤ 1000 nM	Cn1c2nc(Cc3cc[nH]n3)sc2c2cnn(Cc3cscn3)c(=O)c21
< 300 nM	< 300 nM	< 300 nM	≤ 1000 nM	Cn1c2nc(Cc3cc[nH]n3)sc2c2cnn(Cc3cnsc3)c(=O)c21
< 300 nM	< 300 nM	< 300 nM	≤ 1000 nM	Cn1c2nc(Cc3ccccn3)sc2c2cnn(Cc3n[nH]cc3F)c(=O)c21
< 300 nM	< 300 nM	< 300 nM	≤ 1000 nM	Cn1c2nc(Cc3ccccn3)sc2c2cnn(Cc3n[nH]cc3Cl)c(=O)c21
301 to 800 nM	> 800 nM	> 800 nM	> 1000 nM	Cn1cc(C(N)=O)c(Cn2ncc3c4sc(Cc5cc[nH]n5)nc4n(C)c3c2=O)n1
< 300 nM	< 300 nM	< 300 nM	≤ 1000 nM	Cn1cc(N)c(Cn2ncc3c4sc(Cc5cc[nH]n5)nc4n(C)c3c2=O)n1
< 300 nM	< 300 nM	< 300 nM	≤ 1000 nM	COc1cn(C)nc1Cn1ncc2c3sc(Cc4cc[nH]n4)nc3n(C)c2c1=O
< 300 nM	< 300 nM	< 300 nM	≤ 1000 nM	Cn1c2nc(Cc3n[nH]cc3F)sc2c2cnn(Cc3cscn3)c(=O)c21
< 300 nM	< 300 nM	< 300 nM	≤ 1000 nM	Cn1cc(CO)c(Cn2ncc3c4sc(Cc5cc[nH]n5)nc4n(C)c3c2=O)n1
< 300 nM	< 300 nM	301 to 800 nM	≤ 1000 nM	Cn1c2nc(Cc3cc[nH]n3)sc2c2cnn(Cc3ccc(C#N)cn3)c(=O)c21
< 300 nM	> 800 nM	301 to 800 nM	≤ 1000 nM	Cn1c2nc(Cc3cc[nH]n3)sc2c2cnn(Cc3ccc(C(N)=O)cn3)c(=O)c21
< 300 nM	< 300 nM	< 300 nM	≤ 1000 nM	COc1c[nH]nc1Cn1ncc2c3sc(Cc4n[nH]cc4F)nc3n(C)c2c1=O
< 300 nM	< 300 nM	< 300 nM	≤ 1000 nM	Cc1scnc1Cn1ncc2c3sc(Cc4n[nH]cc4F)nc3n(C)c2c1=O
< 300 nM	< 300 nM	< 300 nM	≤ 1000 nM	Cn1c2nc(Cc3cc[nH]n3)sc2c2cnn(Cc3nc(C(N)=O)cs3)c(=O)c21
< 300 nM	301 to 800 nM	< 300 nM	≤ 1000 nM	Cn1c2nc(Cc3cc[nH]n3)sc2c2cnn(Cc3cnc(N)o3)c(=O)c21
301 to 800 nM	301 to 800 nM	301 to 800 nM	> 1000 nM	Cn1c2nc(Cc3cc[nH]n3)sc2c2cnn(Cc3cnc(C(N)=O)o3)c(=O)c21
< 300 nM	< 300 nM	< 300 nM	≤ 1000 nM	Cn1c2nc(Cc3cc[nH]n3)sc2c2cnn(Cc3ncsc3F)c(=O)c21
< 300 nM	< 300 nM	< 300 nM	≤ 1000 nM	Cn1c2nc(Cc3cc[nH]n3)sc2c2cnn(Cc3csc(Cl)n3)c(=O)c21
< 300 nM	< 300 nM	< 300 nM	≤ 1000 nM	Cn1c2nc(Cc3cc[nH]n3)sc2c2cnn(Cc3ccn(N)n3)c(=O)c21

The next lines start with the compound.

Compound	AC50 (PKR K410E)	AC50 (PKR R510Q)	AC50 (wild type PKR [1])	AC50 (wild type PKR [2])
Cn1c2nc(Cc3cc[nH]n3)sc2c2cnn(Cc3ncsc3C#N)c(=O)c21	< 300 nM	< 300 nM	< 300 nM	≤ 1000 nM
Cn1cc(Cl)c(Cn2ncc3c4sc(Cc5cc[nH]n5)nc4n(C)c3c2=O)n1	< 300 nM	< 300 nM	< 300 nM	≤ 1000 nM
Cn1cc(C#N)c(Cn2ncc3c4sc(Cc5cc[nH]n5)nc4n(C)c3c2=O)n1	< 300 nM	< 300 nM	< 300 nM	≤ 1000 nM
Cn1c2nc(Cc3cc[nH]n3)sc2c2cnn(Cc3n[nH]cc3C#N)c(=O)c21	< 300 nM	< 300 nM	< 300 nM	≤ 1000 nM
Cn1c2nc(Cc3cc[nH]n3)sc2c2cnn(Cc3n[nH]cc3C(N)=O)c(=O)c21	< 300 nM	< 300 nM	< 300 nM	≤ 1000 nM
Cn1cc(C(F)(F)F)c(Cn2ncc3c4sc(Cc5cc[nH]n5)nc4n(C)c3c2=O)n1	< 300 nM	< 300 nM	< 300 nM	≤ 1000 nM
Cc1c[nH]nc1Cn1ncc2c3sc(Cc4n[nH]cc4F)nc3n(C)c2c1=O	< 300 nM	< 300 nM	< 300 nM	≤ 1000 nM
Cc1cn(C)nc1Cn1ncc2c3sc(Cc4cc[nH]n4)nc3n(C)c2c1=O	< 300 nM	< 300 nM	< 300 nM	≤ 1000 nM
Cn1c2nc(Cc3n[nH]cc3F)sc2c2cnn(Cc3n[nH]cc3N)c(=O)c21	< 300 nM	< 300 nM	< 300 nM	≤ 1000 nM
Cn1c2nc(Cc3cc[nH]n3)sc2c2cnn(Cc3ncoc3C(N)=O)c(=O)c21	< 300 nM	< 300 nM	< 300 nM	≤ 1000 nM
Cn1c2nc(Cc3cc[nH]n3)sc2c2cnn(Cc3cccc(C(N)=O)n3)c(=O)c21	< 300 nM	< 300 nM	< 300 nM	≤ 1000 nM
Cn1c2nc(Cc3cc[nH]n3)sc2c2cnn(Cc3cccc(C#N)n3)c(=O)c21	< 300 nM	< 300 nM	< 300 nM	≤ 1000 nM
Cn1c2nc(Cc3cc[nH]n3)sc2c2cnn(Cc3ncc(N)s3)c(=O)c21	< 300 nM	< 300 nM	< 300 nM	≤ 1000 nM
Cn1c2nc(Cc3n[nH]cc3F)sc2c2cnn(Cc3nc(N)ccc3F)c(=O)c21	< 300 nM	< 300 nM	< 300 nM	≤ 1000 nM
Cn1c2nc(Cc3cc[nH]n3)sc2c2cnn(Cc3n[nH]cc3O)c(=O)c21	< 300 nM	< 300 nM	< 300 nM	≤ 1000 nM
Cn1c2nc(Cc3cc[nH]n3)sc2c2cnn(Cc3nc(C#N)cs3)c(=O)c21	< 300 nM	< 300 nM	< 300 nM	≤ 1000 nM
Cn1c2nc(Cc3n[nH]cc3F)sc2c2cnn(Cc3ncsc3Cl)c(=O)c21	< 300 nM	< 300 nM	< 300 nM	≤ 1000 nM
Cn1cc(OC(F)(F)F)c(Cn2ncc3c4sc(Cc5cc[nH]n5)nc4n(C)c3c2=O)n1	< 300 nM	< 300 nM	< 300 nM	≤ 1000 nM
Cn1c2nc(Cc3cc[nH]n3)sc2c2cnn(Cc3c[nH]c(C(N)=O)n3)c(=O)c21	< 300 nM	< 300 nM	< 300 nM	≤ 1000 nM
Cn1c2nc(Cc3cc[nH]n3)sc2c2cnn(Cc3coc(Cl)n3)c(=O)c21	< 300 nM	< 300 nM	< 300 nM	≤ 1000 nM
COCc1cn(C)nc1Cn1ncc2c3sc(Cc4cc[nH]n4)nc3n(C)c2c1=O	> 800 nM	> 800 nM	> 800 nM	> 1000 nM
Cn1c2nc(Cc3cc[nH]n3)sc2c2cnn(Cc3ncoc3Cl)c(=O)c21	< 300 nM	< 300 nM	< 300 nM	≤ 1000 nM
